{
  "source": "patent US11779590B2",
  "about": "“AMP-activated protein kinase activating compounds and uses thereof” (Skylark Bioscience LLC, priority 2020, dated 2023)",
  "key": {"[1]": {"conditions": "dosed orally; cited from earlier work"}, "[2]": {"tested_on": "HEK293 cells", "test": "HEK293 cytotoxicity assay (CC50, CellTiterGlo)", "assay_type": "cell-based, human", "from_the_text": "Some exemplary assays and examples for assessing therapeutic efficacy, e.g., anticancer effects, of exemplary compounds of the invention are described herein or well known in the art. HEK293 is a human kidney cell line, and efficacy on HEK293 is considered to be predictive of usefulness for therapeutic treatment.\nHEK293 cells were obtained from American Type Culture Collection (ATCC) (Rockville Maryland). Cells were maintained in Dulbecco's modified Eagle's medium (DMEM) (Invitrogen, Carlsbad, CA) with 10% fetal bovine serum (FBS), 10 mM HEPES and 1 mM sodium pyruvate. Cells were grown at 37° C. in a humidified incubator with a gas phase of 5% C02. Cells were grown for 24 hours in a Tripleflask (NUNC) to ˜95% confluence and then resuspended for dispensing at 125,000 cells/mL of DMEM, 10% FBS, 10 mM Hepes and 1 mM sodium pyruvate.\nHEK293 cells were seeded in 96 well microtiter plates at 10000 cells/well. After 24 hours of incubation an equal volume of fresh media containing test compounds at given concentrations was added. Plates were then incubated and cells were allowed to proliferate for 48 hours at 37° C., 95% humidity, and 5% C02. […] A solution of Promega CellTiterGlo (100 microliters) was added by Thermo Combi and the plates were allowed to sit for 10 minutes before reading on a Perkin-Elmer EnVision with US LUM settings for 0.1 sec per well. […]"}},
  "data": [
    {"smiles": "NC(=O)c1ncn([C@@H]2O[C@H](CO)[C@@H](O)[C@H]2O)c1N", "note": "[AICAR, 5-amino-1-D-ribofuranosyl-1H-imidazole-4-carboxamide]", "values": [
      {"measurement": "bioavailability", "setting": "[1]", "value": "very low"}
    ]},
    {"smiles": "COP(=O)(OC)OC[C@H]1O[C@@H](n2cnc(C(N)=O)c2N)[C@H](O)[C@@H]1O", "note": "[SB00024]", "values": [
      {"measurement": "activity on HEK293 cells (CC50 assay)", "setting": "[2]; at 500 uM", "value": "inactive"}
    ]},
    {"smiles": "NC(=O)c1ncn([C@@H]2O[C@H](COP(=O)(O)Oc3ccc([N+](=O)[O-])cc3)[C@@H](O)[C@H]2O)c1N", "note": "[SB00039]", "values": [
      {"measurement": "potency relative to AICAR on HEK293 cells", "setting": "[2]; ratio of potency (CC50) versus AICAR", "value": "roughly 100 times"}
    ]}
  ]
}
